Values belong to the compound of their own block, whether it stands above or below them.
Tested on: 945468-187-T-J2-PDC spheroids viability
Assay: Anticancer human tumor 945468-187-T-J2-PDC patient-derived rectal carcinoma cell line growth inhibition [PI3K]
Conditions: spheroids with HUVEC and MSC; for IC50: curve of first compound; for viability, T/C: stronger effect = lower value
How it was run: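 Tumor cells grown as multi-cell spheroids with HUVEC endothelial cells and MSC fibroblast-like stroma were treated with targeted agents combined with inavolisib, alpelisib, duvelisib or copanlisib. Doses fell in half-log steps from near clinical Cmax, else from 10 microM. Viability was measured.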

[1] = second compound 0.0316 µM, first compound 0.0316 µM
[2] = second compound 0.0316 µM, first compound 0.1 µM
[3] = second compound 0.0316 µM, first compound 0.316 µM
[4] = second compound 0.0316 µM, first compound 1 µM
[5] = second compound 0.0316 µM, first compound 3.16 µM
[6] = second compound 0.0316 µM, first compound 10 µM
[7] = second compound 0.1 µM, first compound 0.0316 µM
[8] = second compound 0.1 µM, first compound 0.1 µM
[9] = second compound 0.1 µM, first compound 0.316 µM
[10] = second compound 0.1 µM, first compound 1 µM
[11] = second compound 0.1 µM, first compound 3.16 µM
[12] = second compound 0.1 µM, first compound 10 µM
[13] = second compound 0.316 µM, first compound 0.0316 µM
[14] = second compound 0.316 µM, first compound 0.1 µM
[15] = second compound 0.316 µM, first compound 0.316 µM
[16] = second compound 0.316 µM, first compound 1 µM
[17] = second compound 0.316 µM, first compound 3.16 µM
[18] = second compound 0.316 µM, first compound 10 µM
[19] = second compound 1 µM, first compound 0.0316 µM
[20] = second compound 1 µM, first compound 0.1 µM
[21] = second compound 1 µM, first compound 0.316 µM
[22] = second compound 1 µM, first compound 1 µM
[23] = second compound 1 µM, first compound 3.16 µM
[24] = second compound 1 µM, first compound 10 µM
[25] = second compound 3.16 µM, first compound 0.0316 µM
[26] = second compound 3.16 µM, first compound 0.1 µM
[27] = second compound 3.16 µM, first compound 0.316 µM
[28] = second compound 3.16 µM, first compound 1 µM
[29] = second compound 3.16 µM, first compound 3.16 µM
[30] = second compound 3.16 µM, first compound 10 µM
[31] = second compound 10 µM, first compound 0.0316 µM
[32] = second compound 10 µM, first compound 0.1 µM
[33] = second compound 10 µM, first compound 0.316 µM
[34] = second compound 10 µM, first compound 1 µM
[35] = second compound 10 µM, first compound 3.16 µM
[36] = second compound 10 µM, first compound 10 µM
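Also: spheroids exposed to compounds for seven days before reading.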

IC50 (second compound 0.0316 µM): > 10 µM | IC50 (second compound 0.1 µM): > 10 µM | IC50 (second compound 0.316 µM): > 10 µM | IC50 (second compound 1 µM): > 10 µM | IC50 (second compound 3.16 µM): > 10 µM | IC50 (second compound 10 µM): > 10 µM
Compound: C#Cc1c(F)ccc2cc(O)cc(-c3ncc4c(N5CC6CCC(C5)N6)nc(OCC56CCCN5CC(F)C6)nc4c3F)c12 (centres undefined) + Cc1nc(NC(=O)N2CCCC2C(N)=O)sc1-c1ccnc(C(C)(C)C(F)(F)F)c1
viability, T/C [1]: 110% | viability, T/C [2]: 110% | viability, T/C [3]: 105% | viability, T/C [4]: 103% | viability, T/C [5]: 135% | viability, T/C [6]: 107% | viability, T/C [7]: 125% | viability, T/C [8]: 114% | viability, T/C [9]: 102% | viability, T/C [10]: 107% | viability, T/C [11]: 136% | viability, T/C [12]: 105% | viability, T/C [13]: 103% | viability, T/C [14]: 100% | viability, T/C [15]: 116% | viability, T/C [16]: 102% | viability, T/C [17]: 164% | viability, T/C [18]: 99.1% | viability, T/C [19]: 125% | viability, T/C [20]: 93.6% | viability, T/C [21]: 109% | viability, T/C [22]: 116% | viability, T/C [23]: 106% | viability, T/C [24]: 90.5% | viability, T/C [25]: 85.6% | viability, T/C [26]: 85.8% | viability, T/C [27]: 95.4% | viability, T/C [28]: 94.1% | viability, T/C [29]: 94% | viability, T/C [30]: 117% | viability, T/C [31]: 85.5% | viability, T/C [32]: 73.2% | viability, T/C [33]: 99% | viability, T/C [34]: 92.6% | viability, T/C [35]: 77% | viability, T/C [36]: 80.9%

IC50 (second compound 0.0316 µM): > 10 µM | IC50 (second compound 0.1 µM): > 10 µM | IC50 (second compound 0.316 µM): > 10 µM | IC50 (second compound 1 µM): > 10 µM | IC50 (second compound 3.16 µM): > 10 µM | IC50 (second compound 10 µM): > 10 µM
Compound: C=CC(=O)N1CCN(c2nc(=O)n(-c3c(C)ccnc3C(C)C)c3nc(-c4c(O)cccc4F)c(F)cc23)C(C)C1 (centres undefined) + Cc1nc(NC(=O)N2CCCC2C(N)=O)sc1-c1ccnc(C(C)(C)C(F)(F)F)c1
viability, T/C [1]: 102% | viability, T/C [2]: 79.7% | viability, T/C [3]: 96.2% | viability, T/C [4]: 90.1% | viability, T/C [5]: 128% | viability, T/C [6]: 113% | viability, T/C [7]: 117% | viability, T/C [8]: 121% | viability, T/C [9]: 97.9% | viability, T/C [10]: 97.5% | viability, T/C [11]: 95% | viability, T/C [12]: 106% | viability, T/C [13]: 117% | viability, T/C [14]: 156% | viability, T/C [15]: 102% | viability, T/C [16]: 106% | viability, T/C [17]: 101% | viability, T/C [18]: 96% | viability, T/C [19]: 102% | viability, T/C [20]: 111% | viability, T/C [21]: 100% | viability, T/C [22]: 91.6% | viability, T/C [23]: 95% | viability, T/C [24]: 104% | viability, T/C [25]: 91.2% | viability, T/C [26]: 107% | viability, T/C [27]: 83.8% | viability, T/C [28]: 81.9% | viability, T/C [29]: 82.8% | viability, T/C [30]: 96.2% | viability, T/C [31]: 70.4% | viability, T/C [32]: 87.8% | viability, T/C [33]: 81.7% | viability, T/C [34]: 73.7% | viability, T/C [35]: 87.3% | viability, T/C [36]: 92.9%

Reference: PubChem BioAssay AID1963972 (Molecular Pharmacology Branch, DTP, NCI, 2024)
